{"source": "patent US12156922B2", "about": "“Copper-containing complex and uses thereof” (Bar-Ilan University, priority 2017, dated 2024)", "molecular_target": "T1, Ctr1 (Homo sapiens, UniProt O15431, DEL121-121)", "T1 construct": "intein (cleaved yes); made in house; host or cells: Escherichia coli BL21 (DE3)", "T1 sequence (O15431 with tags, fused parts or gaps DEL121-121)": "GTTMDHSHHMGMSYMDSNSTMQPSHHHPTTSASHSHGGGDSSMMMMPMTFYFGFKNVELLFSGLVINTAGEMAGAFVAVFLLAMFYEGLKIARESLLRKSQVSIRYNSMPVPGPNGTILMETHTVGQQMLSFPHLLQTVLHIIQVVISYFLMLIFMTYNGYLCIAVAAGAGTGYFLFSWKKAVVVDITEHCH", "test": "EPR of Cu(II) coordination after exposure of complex to purified Ctr1", "type": "binding", "conditions": "120 K, 0.5 mM", "description": "Human Ctr1 (hCtr1) was obtained by expression and purification of a protein (SEQ ID NO: 43), using a pYTB12-hCTR1 plasmid, in which the full length hCTR1 sequence was cloned into the pYTB12 plasmid. This construct encodes for a fusion protein composed of hCTR1, intein, and a chitin-binding domain. The plasmid was transformed into the Escherichia coli strain BL21 (DE3).\nIn order to assess the behavior of a Cu(II)-ligand-peptide complex under physiological conditions, the coordination of Cu(II) was investigated by EPR spectroscopy following exposure of a Cu(II)-IDA-Met1 complex (prepared as described in Example 2) to the copper transporter Ctr1 (in a purified state), which plays a central role in the cellular copper cycle. For comparison, the behavior of Cu(II)-IDA (without a peptide) was also investigated under such conditions. EPR spectra were interpreted by comparison to simulated spectra prepared using the EasySpin™ computational package.", "data": [{"smiles": "O=C([O-])CNCC(=O)[O-].[Cu+2]", "note": "[Cu(II)-IDA]", "values": [{"measurement": "coordination of Cu(II) in the presence of Ctr1", "value": "becomes coordinated to the Ctr1"}]}]}
